Experimental data taken from the METLIN SMRT retention time set (Domingo-Almenara et al. 2019).

Experiment: gradient 5% acetonitrile 3 min, to 50% in 2 min, to 85% in 15 min, held 3 min, 100 µL/min
Details: column: Zorbax Extend-C18 2.1 x 50 mm; eluents: water / acetonitrile, 0.1% formic acid
Method in brief: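 The mobile phases were water and acetonitrile, each with 0.1% formic acid, pumped at 100 μL/min through a Zorbax Extend-C18 column (2.1 × 50 mm, 1.8 μm). Pure standards were injected as mixtures of ~100 molecules and detected by a quadrupole time-of-flight mass spectrometer in positive and negative ionization mode. Retention time came from computationally picked adduct peaks, each inspected by hand.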

Compound | RP-LC retention time
Cc1cc(C)c(S(=O)(=O)N2CCC(N3CCN(Cc4ccccc4)C(=O)C3=O)CC2)cc1C | 917 s
Cc1ccc(C(=O)NCCc2cn(C)c3ncccc23)cc1F | 720 s
CNc1cc(NS(=O)(=O)c2ccc(N)cc2)nc(NC)n1 | 370 s
CCOc1ccc(S(=O)(=O)N2CCC(c3nc(C(=O)N(C)C)c(C)o3)CC2)cc1 | 843 s
N#Cc1cnc2ccc(F)cc2c1N1CCC(C(=O)Nc2ccc3c(c2)OCCO3)CC1 | 804 s
COCCCn1c(=O)c2ccccc2n(Cc2nc(-c3ccccc3)no2)c1=O | 994 s
CCn1cc(-c2nc(CC(=O)NC3CCCCCC3)cs2)c2cccnc21 | 1050 s
COc1ccc(-c2csc(N3CCN(c4ccc([N+](=O)[O-])c(-n5nc(C)cc5C)c4)CC3)n2)cc1 | 1150 s
CCn1cc(CCNC(=O)CC2CCCC2)c2cccnc21 | 701 s
Cc1ccc(S(=O)(=O)Nc2cccc(-c3nc4ncccn4c3C)c2)cc1 | 670 s
CN(CC1CCOC1)C(=O)Nc1ccccc1Cl (centres undefined) | 722 s
Cc1cc(C)cc(S(=O)(=O)N2CCC(C(=O)NCc3csc(-c4ccccc4)n3)CC2)c1 | 990 s
N#CCN(c1ccc2c(c1)OCO2)S(=O)(=O)c1ccc2nncn2c1 | 692 s
CSc1cccc(NC(=O)Cn2cc(-c3ccccc3)c3ncn(C4CC4)c(=O)c32)c1 | 1020 s
O=C1C(O)=C(S(=O)(=O)c2ccc(Cl)cc2)C(c2ccc(F)cc2)N1Cc1ccco1 (centres undefined) | 972 s
CC1(C(=O)NC2CCCCCCC2)CN(S(C)(=O)=O)CC(=O)N1c1cccc(Cl)c1 (centres undefined) | 963 s
O=C(c1cc(-c2cccs2)n(C2CCS(=O)(=O)C2)n1)N1CCN(c2ccccn2)CC1 (centres undefined) | 602 s
COc1ccccc1C(=O)N1CCCC1c1c(C)noc1C (centres undefined) | 693 s
COc1ccc(CCNc2nc(-c3ccc(Cl)cc3)cs2)cc1OC | 1050 s
Cc1nc(-c2csc(S(=O)(=O)N3CCCC(C(=O)N4CCC5(CC4)OCCO5)C3)c2)no1 (centres undefined) | 798 s
COc1ccc(NC2=NCCO2)c2c1CCCC2 | 640 s
CN(C)c1ccc(Nc2nc(-c3ccccc3)cs2)cc1 | 705 s
Cc1ccc(NC(=O)Cn2nc(N3CCCC3)c3ccccc3c2=O)cc1Cl | 1060 s

Compound | RP-LC retention time
CC1CCC(C(=O)NC(Cc2c[nH]c3ccccc23)C(=O)Nc2ccncc2)CC1 (centres undefined) | 668 s
Cn1nc(CNC(=O)c2ccccc2Br)c2ccccc21 | 757 s
Cc1oc2ncn(CCC(=O)N3CCN(c4ccccn4)CC3)c(=O)c2c1C | 573 s
COc1ccc(-c2cc3c4nnc(SCC(=O)Nc5cccc(Cl)c5)n4ccn3n2)cc1 | 911 s
COc1ccc(CNC(=O)Cn2ccc3ccc(N4CCOCC4)nc32)cc1 | 831 s
Cc1ccc(NS(=O)(=O)c2cc(-c3[nH]ncc3C(=O)N(C)C)oc2C)cc1 | 690 s
CN1C(=O)c2cccnc2Sc2cc(NC(=O)c3ccc(Cl)s3)ccc21 | 870 s
CC1=C(c2ccc(C)cc2)S(=O)(=O)N=C1N1CCCN(C(=O)c2ccc(C#N)cc2)CC1 | 835 s
O=C(CSc1nnc(-c2ccncc2)o1)Nc1cccc([N+](=O)[O-])c1 | 669 s
CC(C)OCCCNC(=O)COc1ccccc1-c1nnc(-c2ccccc2)o1 | 631 s
CCc1ccc(NC(=O)N2CCc3nc[nH]c3C2)cc1 | 612 s
COCCC1(NC(=O)C2CCOCC2)CCN(C(=O)C2CC=CC2)CC1 | 632 s
O=C(NCC(O)c1ccsc1)C1(c2ccccc2)CCOCC1 (centres undefined) | 667 s
O=C(Nc1ccc2c(c1)OCCO2)C1CN(S(=O)(=O)C2CC2)CC12CCCCC2 (centres undefined) | 881 s
CCCN1C(=O)COc2ccc(-c3noc(-c4ccc(OC)cc4)n3)cc21 | 1140 s
Cn1nccc1C(=O)N1CCCC1c1nc(-c2ccc(F)cc2F)no1 (centres undefined) | 794 s
Cc1nn(C)c(C)c1CNC(=O)c1cccc2[nH]cc(CN3CCCC3)c12 | 600 s
Cc1nnc2c(=O)n(CC(=O)N3CCCCC3)c3cccnc3n12 | 616 s
O=C(Nc1ccccc1)N1CCN(c2cnn3c(C4CC4)nnc3c2)CC1 | 625 s
COc1ccc(CN(C)Cc2cc(=O)n3ccc(C)cc3n2)cc1 | 608 s
CCCCNC(=O)C1CCCN(C(=O)Nc2ccc(NC(=O)Nc3ccccc3)cc2)C1 (centres undefined) | 812 s
FC(F)(F)c1cccc(-c2cncc(N3CCN(c4ccccn4)CC3)n2)c1 | 740 s
O=C1NC2(CCN(C(=O)Nc3ccccc3)CC2)Oc2ccccc21 | 721 s

Compound | RP-LC retention time
COC(=O)c1cc(C)nc2c1c(=O)n(Cc1cccc(C)c1)c(=O)n2Cc1ccco1 | 1170 s
CCNc1nc(NCC)n2c(SCC(=O)Nc3ccccc3[N+](=O)[O-])nnc2n1 | 623 s
CCOCCCNC(=O)CCCn1c2ccccc2c2cnn(C)c(=O)c21 | 728 s
CC1Oc2ccccc2OC1C(=O)Nc1sc2c(c1C#N)CCCC2 (centres undefined) | 1120 s
Cc1ccc(-c2cc3n(n2)CCCN(C(=O)c2cccc(C#N)c2)C3)cc1 | 862 s
COC1=CC(=O)OC(/C=C/c2ccccc2)C1 (centres undefined) | 883 s
CCNC(=O)C1CCCN(S(=O)(=O)c2cc(OC)ccc2OC)C1 (centres undefined) | 699 s
COC(=O)C(C)NC(=O)NCc1cccn1Cc1ccccc1F (centres undefined) | 804 s
O=C(CSc1nnc(-c2ccccc2F)o1)Nc1nccs1 | 691 s
Cc1noc2nc(C)n(CC(=O)NCc3ccc(F)cc3)c(=O)c12 | 735 s
Cc1ccc2nc(NC(=O)CSc3nnc(Cc4c(C)[nH]c(=O)[nH]c4=O)o3)sc2c1 | 643 s
O=c1n(Cc2ccccc2F)nc2c(S(=O)(=O)N3CCc4ccccc4C3)cccn12 | 947 s
O=C(Nc1ccc(Br)cc1)C1CCCN1S(=O)(=O)c1ccc(F)cc1 (centres undefined) | 967 s
Cc1cc2c(=O)n(CC(=O)Nc3cccc(Cl)c3)c3cccnc3n2n1 | 742 s
Cc1ccc(Cl)cc1N1CCN(C(=O)c2ccc3c(c2)NC(=O)C2CCCCN32)CC1 (centres undefined) | 1080 s
COc1ccc(NC(=O)C2CC(=O)N(c3n[nH]c4cccc(F)c34)C2)cc1Cl (centres undefined) | 752 s
CCn1cc(CN2CCC(N3C(=O)C4(CCCCC4)C3c3ccccc3)CC2)cn1 (centres undefined) | 681 s
Cc1nc(C)c(C(=O)N2CC[C@H](CO)[C@H](NC(=O)C3CC3)C2)s1 | 573 s
COc1cc2c(cc1CNC(=O)Cn1c(C)nc3cc4c(cc31)OCCO4)OCCCO2 | 643 s
Cc1ccc(-c2cc3c(=O)n(Cc4nc(-c5cccc(Br)c5)no4)ncn3n2)c(C)c1 | 1320 s
O=C(NCCc1csc(C2CCCN(C(=O)C3CCOC3)C2)n1)C1CC1 (centres undefined) | 753 s
Cc1nc2cc(N3CCCC(C(=O)NCc4cccs4)C3)cnc2nc1C (centres undefined) | 687 s
CS(=O)(=O)N1CCCc2ccc(NS(=O)(=O)c3ccc(Cl)s3)cc21 | 849 s

Compound | RP-LC retention time
NC(=O)C1CCN(C(=O)CN2c3ccc(Br)cc3-c3ccccc3S2(=O)=O)CC1 | 705 s
O=C(CN1CCc2[nH]c3c(F)c(Cl)ccc3c(=O)c2C1)Nc1ccc2c(c1)OCCO2 | 643 s
Cc1noc(C)c1C(=O)N1CC(F)(F)C[C@H]1c1nc(C2CC2)no1 | 806 s
O=c1ccc(-c2ccncc2)nn1CCCNS(=O)(=O)/C=C/c1ccccc1 | 582 s
O=C(O)COC(=O)Cc1ccccc1Nc1c(Cl)cccc1Cl | 957 s
Cc1ccccc1Nc1c(-c2ccc(N(C)C)cc2)nc2cccc(C)n12 | 811 s
CCOc1ccc(S(=O)(=O)Nc2cc(-c3cn4ccc(C)cc4n3)ccc2C)cc1 | 718 s
CCOC(=O)c1sc2nc(NC(=O)Cc3ccccc3)sc2c1C | 1020 s
CC(C)(C)c1noc(-c2ccc(-n3cnc(C(=O)N4CCOCC4)c3)nc2)n1 | 793 s
CCN(Cc1ccc(OC)cc1)Cc1cc(=O)n2cccc(C)c2n1 | 618 s
COc1cccc2c1oc(=O)c1c(NC(C)=O)nc3c(c12)CCCCC3 | 1020 s
Cc1ccc(CS(=O)(=O)N2CCC(CN3CCCC(C)C3)CC2)cc1 (centres undefined) | 688 s
COc1cccc(N2CC(C)Cn3c2nc2c3c(=O)n(Cc3c(F)cccc3Cl)c(=O)n2C)c1 (centres undefined) | 1080 s
O=C(Cc1c(Sc2ccc(F)cc2)[nH]c2ccccc12)N1CCN(c2ncccn2)CC1 | 966 s
Cc1cc(C)c2sc(NC(=O)C3=COCCO3)nc2c1 | 895 s
CCC(=O)N1CCc2cc(N3CC(C(=O)Nc4ccccc4CC)CC3=O)ccc21 (centres undefined) | 750 s
O=C(CSc1ccc(N2CCCC(C(=O)NC3CC3)C2)nn1)Nc1ccccc1Cl (centres undefined) | 673 s
CCn1ccc2c(cc(C(=O)Nc3cccc(C(F)(F)F)c3)n2C)c1=O | 880 s
CCC(CN(C)Cc1ccccc1)NC(=O)CN(c1ccccc1)S(=O)(=O)N(C)C (centres undefined) | 686 s
Cc1ccc(S(=O)(=O)N2C(=O)CCC2C(=O)N(C)C2CCCCC2)cc1 (centres undefined) | 916 s
